Measured values: patent US9267949B2, “Alkylamino BODIPY dyes as selective fluorescent probes for proteins and mouse embryonic stem cells” (National University of Singapore, priority 2011, dated 2016)

Experiments:
[1] = Spectroscopic properties of the BDM library (absorbance and emission maxima); assay type: physicochemical
[2] = Quantum yield measurements; assay type: physicochemical; details: referred to Rhodamine B in EtOH, excitation 510 nm, emission integrated 540-800 nm
Method in brief: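 Integrated fluorescence emission from 540 to 800 nm was referenced to Rhodamine B in EtOH (Φ=0.70) after excitation at 510 nm. Quantum yield was calculated with correction for solvent refractive index and absorbance at the excitation wavelength.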

human IgG [3] = assay: Screening the BDM library: fluorescence response against proteins and peptides; assay type: binding; details: 10 μM dye
Procedure: Fluorescence intensities were measured using a Spectra Max Gemini XSF plate reader in a 384-well plate. BDM compounds were dissolved to a final concentration of 10 μM (20 mM HEPES buffer, pH 7.4, containing 1% DMSO) and incubated with different proteins and peptides at different serial concentrations in 20 mM HEPES buffer (pH 7.4) (FIG. 1a). The excitation wavelength was set at 510 nm, and the emission spectra were recorded from 560 to 700 nm. Fluorescence fold increase ratios were determined by referring the maximum fluorescence intensity emission of BDM compounds in the presence of the screened proteins and peptides to the maximum fluorescence intensity emission of BDM compounds in 20 mM HEPES buffer (pH 7.4) (FIG. 1b).

human IgG [4] = assay: Surface plasmon resonance on immobilized immunoglobulin chip; assay type: binding; details: 25° C., read-out: KD (SPR, steady-state model)
Description: The following experiments were aimed at determining the dissociation constant of the interaction between Ig Orange and human IgG. Surface Plasmon Resonance (SPR) has been extensively used to measure the binding constants between small molecules and biopolymers, 25 and we modified human IgG with biotin so that it could be immobilized on a neutravidin-coated sensor chip. Upon immobilization of the biotinylated protein on a neutravidin-coated sensor chip CM7, we performed Ig Orange titrations in duplicate with increasing concentrations of the small molecule.
Human IgG (5.0 mg, 0.033 μmol) and biotin-OSu (0.11 mg, 0.33 μmol) were dissolved in 0.1 M NaHCO3 (pH 8.5) and shaken for 1 h at 25° C. […] The fluorescence response of Ig Orange to IgG and biotinylated IgG was compared (FIG. 5). The concentration of biotinylated IgG before fluorescence and SPR experiments was determined by Bradford assay. […] Job Plot Analysis: Ig Orange (final concentrations: 0, 1.6, 3.2, 4.8, 6.4, 8.0, 9.6, 11.2, 12.8, 14.4, 16 μM) and human IgG (final concentrations: 16, 14.4, 12.8, 11.2, 9.6, 8.0, 6.4, 4.8, 3.2, 1.6, 0 μM) were incubated in PBS buffer (pH 7.3) containing 1% DMSO, and the fluorescence intensities of the different solutions were recorded on a SpectraMax M2 plate reader (excitation: 530 nm; emission: 590 nm). […]

human IgG [5] = assay: Fluorescence-based fractional saturation curve; details: 10 μM dye, 20 mM HEPES pH 7.4, exc 530 nm, em 590 nm; read-out: dissociation constant Kd (fluorescence binding saturation curve)
Procedure: Ig Orange (10 μM) was incubated with different concentrations of human IgG in 20 mM HEPES buffer (pH 7.4) and the fluorescence intensities were recorded on a SpectraMax M2 plate reader (excitation: 530 nm; emission: 590 nm) (FIG. 9).

[6] = tested on: Fab and Fc fragments of human IgG1; assay: Fluorescence increase with Fab and Fc fragments; assay type: binding; details: Fab vs Fc fragments of human monoclonal IgG1
Procedure: FIGS. 6a and 6b show binding sensorgrams of Ig Orange (0.07, 0.21, 0.62, 1.86, 5.57 and 16.70 μM) upon injection across an immobilized immunoglobulin chip, which were fit using the equilibrium responses of a steady-state model. […] Values are represented as means (n=3) and error bars as standard deviations.
In order to identify the region of human IgG to which Ig Orange binds, we evaluated the fluorescence response of Ig Orange in the presence of human polyclonal IgG and monoclonal IgG1, the most abundant subtype. […] To confirm this observation and determine the stoichiometry of the complex between Ig Orange and the full immunoglobulin, we analyzed the interaction by means of a Job plot. A maximum fluorescence increase was detected for a 2:1 Ig Orange:immunoglobulin ratio, which supported our observation that the preferred binding region of Ig Orange corresponded to the Fab fragments of the immunoglobulin (FIG. 7b). […] With this first adaptation of the BODIPY scaffold to a solid-phase approach we accelerated the development of alkylamino BODIPY-based fluorescent probes, being Ig Orange the first immunoglobulin fluorescent sensor.

human IgG [7] = assay: Structure-fluorescence relationships: Ig Orange vs BD-69 with human IgG; assay type: binding; details: 10 μM each, 20 mM HEPES pH 7.4
Procedure: Ig Orange (BDM-69) (10 μM) and BD-69 (10 μM) were incubated with different concentrations of human IgG in 20 mM HEPES buffer (pH 7.4) and the fluorescence intensities were recorded on a SpectraMax M2 plate reader (excitation: 530 nm; emission: 590 nm), as shown in FIG. 7a. Values are represented as means (n=3) of the fluorescence fold increase after incubation with the protein.

In the case of CC1=CC(/C=C/c2ccc(/C=C/c3ccccc3)cc2)=[N+]2C1=C(CCN)c1cccn1[B-]2(F)F [BDM-69], the “λmax (ABS)” value [1] is reported as 574 nm, the “λmax (EM)” value [1] is reported as 594 nm and the “φ (quantum yield)” value [2] is reported as 0.32. The “turn-on fluorescence increase in the presence of human IgG” value (human IgG [3]; 20 mM HEPES buffer pH 7.4) was 75 fold, the “selectivity profile against proteins and peptides” value (human IgG [3]; 20 mM HEPES pH 7.4, exc 510 nm) was “best selectivity profile among the whole library” and the Kd (human IgG [4]) was 71.7 ± 0.6 µM. The Kd (human IgG [5]) was 14.1 ± 0.9 µM, the “preferred binding region of the immunoglobulin” value [6] was “preferred binding to the Fab region” and the “higher fluorescence increase of Ig Orange relative to BD-69 vs. human IgG” value (human IgG [7]) was 15 fold.
